Columns and labels:
5-HT1A receptor = target: T1, 5-HT1A receptor (UniProt P08908); assay: 5-HT1A functional assays (inhibition of forskolin-stimulated adenylate cyclase / cAMP); format: biochemical; settings: for EC50: read-out: EC50, nM (SEM) 5-HT1A functional
T1 sequence (P08908 1-422): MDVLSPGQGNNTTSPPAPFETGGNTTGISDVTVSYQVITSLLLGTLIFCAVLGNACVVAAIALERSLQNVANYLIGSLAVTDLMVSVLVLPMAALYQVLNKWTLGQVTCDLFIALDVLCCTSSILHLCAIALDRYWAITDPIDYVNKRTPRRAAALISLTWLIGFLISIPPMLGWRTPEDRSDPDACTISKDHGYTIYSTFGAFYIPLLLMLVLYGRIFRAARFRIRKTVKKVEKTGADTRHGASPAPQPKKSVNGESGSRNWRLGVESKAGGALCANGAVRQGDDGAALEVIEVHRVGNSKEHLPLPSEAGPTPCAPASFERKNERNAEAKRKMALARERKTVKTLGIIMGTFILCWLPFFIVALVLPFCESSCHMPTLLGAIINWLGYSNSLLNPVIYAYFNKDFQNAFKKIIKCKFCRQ
Procedure: The function of Compounds of the present invention can be determined using a variety of methods to assess the functional activity of 5-HT1A agonists. One such assay is performed using hippocampal slices from male Sprague-Dawley rats, measuring the inhibition of forskolin-stimated adenylate cyclase [J. Med. Chem. 42. 36 (1999), J. Neurochem. 56, 1114 (1991), J. Pharm. Exper. Ther. 284:1082 (1998). Rat hippocampal membranes were homogenized in 25 volumes of 0.3 M sucrose containing 1 mM EGTA, 5 mM EDTA, 5 mM dithiothreitol, and 20 mM Tris-HCl, pH 7.4 at 25° C. The homogenate was centrifuged for 10 m in at 1,000×g. The supernatant subsequently was centrifuged at 39,000×g for 10 min. The resulting pellet was re-suspended in homogenization buffer at a protein concentration of approximately 1 mg/ml and aliquots were stored at −140° C. Prior to use, the membranes were rehomogenized in a Potter-Elvehjem homogenizer. Fifty μl of the membrane suspension (50 μg protein) were added to an incubation buffer containing 100 mM NaCl, 2 mM magnesium acetate, 0.2 mM ATP, 1 mM cAMP, 0.01 mM GTP, 0.01 mM forskolin, 80 mM Tris-HCl, 5 mM creatine phosphate, 0.8 U/μl creatine phosphokinase, 0.1 mM IBMX, 1-2 μCi α-[^32P]ATP. Incubations with test compounds (10 min at 30° C.) were initiated by the addition of the membrane solution to the incubation mixture (prewarmed 5 min at 30° C.). [^32P]cAMP was measured according to the method of Salomon (Adv. Cyclic Nucleotide Res. 10:35-55, 1979). Protein was measure using the Bradford (Anal. Biochem 72:248-254, 1976) assay.
Functional activity can also be determined in recombinant human receptors according to the method of Schoeffter et al., (Neuropharm. 36:429-437, 1997). HeLa cells transfected with recombinant human 5-HT1A receptors were grown to confluence in 24-well plates. The cells were rinsed with 1 ml of Hepes-buffered saline (in mM) NaCl 130, KCl 5.4, CaCl2, 1.8, MgSO4 0.8, NaH2PO4 0.9, glucose 25, Hepes 20, pH 7.4, and phenol red 5 mg/l. The cells were labelled with 6 μCi/ml of [^3H] adenine (23 Ci/mmol, Amersham, Rahn AG, Zurich, Switzerland) in 0.5 ml of saline at 37° C. for 2 hr. The plates were subsequently rinsed twice with 1 ml of buffered saline containing 1 mM isobutylmethylxanthine. The cells were incubated for 15 min in 1 ml of this solution (37° C.) in the presence or absence of 10 μM forskolin and the test compound. The buffer was then removed and 1 ml of 5% trichloroacetic acid (TCA) containing 0.1 mM cAMP and 0.1 mM ATP was added to extract the samples. After 30 min at 4° C., the TCA extracts were subjected to chromatographic separation on Dowex AG 50W-X4 and alumina columns (Salomon, Methods in Enzymology 195: 22-28, 1991). Cyclic AMP production was calculated as the ratio [^3H]cAMP/([^3H]cAMP+[^3H]ATP).

intraocular pressure = assay: IOP response in lasered (hypertensive) eyes of conscious cynomolgus monkeys; format: in vivo, cynomolgus monkey
Procedure: IOP Response in Lasered (Hypertensive) Eyes of Conscious Cynomolgus Monkeys
Intraocular pressure (IOP) was determined with an Alcon Pneumatonometer after light corneal anesthesia with 0.1% proparacaine. Eyes were washed with saline after each measurement. After a baseline IOP measurement, test compound was instilled in one 30 μL aliquot to the right eyes only of nine cynomolgus monkeys. Vehicle was instilled in the right eyes of six additional animals. Subsequent IOP measurements were taken at 1, 3, and 6 hours.

[1] = 300 μg topical ocular, 1 hour after dose
[2] = 300 μg topical ocular, 3 hours after dose
[3] = 300 μg topical ocular, 6 hours after dose

Compound | Efficacy (Emax, %) 5-HT1A functional (5-HT1A receptor) | EC50 (5-HT1A receptor) | Percent IOP Reduction (intraocular pressure; [1]) | Percent IOP Reduction (intraocular pressure; [2]) | Percent IOP Reduction (intraocular pressure; [3]) | Percent IOP Reduction (intraocular pressure; 250 μg topical ocular, 1 hour after dose) | Percent IOP Reduction (intraocular pressure; 250 μg topical ocular, 3 hours after dose) | Percent IOP Reduction (intraocular pressure; 250 μg topical ocular, 6 hours after dose)
CC(N)Cn1ccc2ccc(O)cc21.O=C(O)/C=C/C(=O)O (stereo not drawn) [1-(2-aminopropyl) 6-hydroxyindole fumarate] | 89% | 780 nM | 19.1% | 30.1% | 27% | – | – | –
CC(N)Cc1c[nH]c2ccc(O)cc12.O=C(O)/C=C\C(=O)O (stereo not drawn) [α-Methyl 5-hydroxytryptamine maleate, 3-(2-aminopropyl)-1H-indol-5-ol] | 100% | 378 nM | – | – | – | 14.2% | 25.8% | 30.8%
COc1ccc2[nH]cc(CC(C)N)c2c1.O=C(O)/C=C/C(=O)O (stereo not drawn) [α-Methyl 5-methoxytryptamine fumarate] | 92% | 570 nM | 14% | 23.5% | 22.6% | – | – | –
